# Assay results published in article PMC10789121, “Amine Basicity of Quinoline ATP Synthase Inhibitors Drives Antibacterial Activity against Pseudomonas aeruginosa” (ACS Medicinal Chemistry Letters, 2023).
# Where “and” joins values, the source holds several entries; their conditions need not be identical. Equal entries are not always repeated. Where two headings read alike, the source gives them in different places.
# Tests used:
# PA ATP synthase [1] = biological target: T1, PA ATP synthase (Pseudomonas aeruginosa, UniProt Q9HT15); parameters: method as in PMID 37922420; conditions: previously determined; cited from earlier work
# T1 construct: a whole operon plasmid that expresses; made in house; host or cells: Escherichia coli DK8 (K-12 strain lacking the unc operon) transformed with pASH20; used as inverted membrane vesicles, not purified
# [2] = test system: PA electron transport chain; parameters: method as in PMID 37922420; conditions: previously determined; cited from earlier work
# PA 9027 [3] = test system: PA 9027; parameters: method as in PMID 37922420; conditions: cited from earlier work
# [4] = test system: PΔ6 (efflux knockout strain of PA); parameters: method as in PMID 37922420; conditions: cited from earlier work
# [5] = test system: BAA 2108 (MDRPA clinical isolate); parameters: method as in PMID 37922420; conditions: cited from earlier work
# [6] = test system: BAA 2109 (MDRPA clinical isolate); parameters: method as in PMID 37922420; conditions: cited from earlier work
# [7] = test system: BAA 2110 (MDRPA clinical isolate); parameters: method as in PMID 37922420; conditions: cited from earlier work
# PA ATP synthase [8] = biological target: T1, PA ATP synthase; experiment: Inhibition of NADH-driven PA ATP synthesis activity in DK8/pASH20 inverted membrane vesicles (end-point luciferin/luciferase assay); type: biochemical; conditions: for IC50: PA ATP synthase IC50 (absolute), NADH-driven ATP synthesis, EC DK8/pASH20 inverted membrane vesicles
# [9] = test system: PA electron transport chain; experiment: Electron transport activity (ACMA fluorescence quenching) in PA 9027 inverted membrane vesicles; type: biochemical, Pseudomonas aeruginosa; conditions: for PA ETC IC50: PA 9027 inverted membrane vesicles
# From the text: The assay for PA ATP synthase activity in EC DK8/pASH20 membrane vesicles requires a functional EC ETC, so potent inhibition of the EC ETC by any compound would interfere with the determination of its IC50 for PA ATP synthase. […] Furthermore, potent inhibition of PA ETC could be an alternative mechanism of action for the antibacterial activity of the current series.
# (§1) Determination of electron transport activity. As previously described,11 inverted membrane vesicles from PA 9027 or E. coli DK8 pASH20 were added to HMK buffer containing 0.3 µg/mL 9-amino-6-chloro-2-methoxyacridine (ACMA) and 0-64 µg/mL test compound in DMSO. After measurement of baseline ACMA fluorescence for 60 s, redox-driven H+ pumping was initiated by addition of NADH to 0.8 mM, and fluorescence quenching was monitored for 120 s before addition of nigericin to 0.5 µg/mL. Relative activity is reported as the minimum fluorescence value normalized to the maximum fluorescence value following addition of nigericin.
# [10] = test system: EC electron transport chain; experiment: Electron transport activity (ACMA fluorescence quenching) in E. coli DK8 pASH20 inverted membrane vesicles; type: biochemical, Escherichia coli
# Protocol: as §1
# PA 9027 [11] = experiment: Antimicrobial susceptibility, broth microdilution MIC; type: cell-based; conditions: Pseudomonas aeruginosa, read-out: MIC PA 9027
# Protocol: (§2) Pseudomonas aeruginosa (ATCC 9027), Drug-Resistant Pseudomonas aeruginosa from ATCC Panel MP-23 (BAA-2108, BAA-2109, BAA-2110), and Pseudomonas aeruginosa efflux knockout GKCW120 (PD6)14 provided by Zgurskaya and co-workers at the University of Oklahoma.
# (§3) Antimicrobial Susceptibility Assay Procedure. Susceptibility testing was performed in biological triplicate, using the broth microdilution method as outlined by the Clinical and Laboratory Standards Institute. Briefly, minimum inhibitory concentrations (MIC) determinations were carried out in 96-well microtiter plates with 2-fold serial dilutions of the compounds from 0 […]
# (§4) Briefly, to each well 1 µL of compound in DMSO, 89 µL of TSB, and 10 µL of bacterial inoculum, grown from frozen stock in 10 mL of TSB […]
# (§5) for 4-6 hours, were added. […]
# (§6) on a Biotek Synergy HTX Multi-mode plate reader. Data was processed by background subtracting the media absorbance and then normalizing the data to full bacterial growth with only vehicle.
# (§7) MIC is defined as the lowest concentration of antibiotic or antibiotic/adjuvant combination that achieves ≥ 85% growth inhibition, which corresponds to no visible growth. […]
# [12] = test system: PΔ6 (efflux knockout strain of PA); experiment: as above; type: cell-based; conditions: Pseudomonas aeruginosa, read-out: MIC PΔ6
# Protocol: as §2, §3, §4, §5, §6, §7
# [13] = test system: BAA 2108 (MDRPA clinical isolate); experiment: as above; type: cell-based, Pseudomonas aeruginosa; conditions: Pseudomonas aeruginosa, BAA2108; >85% reduction in growth at OD 590 nm; n = 3; read-out: MIC BAA 2108
# Protocol: as §2, §3, §4, §5, §6, §7
# [14] = test system: BAA 2109 (MDRPA clinical isolate); experiment: as above; type: cell-based, Pseudomonas aeruginosa; conditions: Pseudomonas aeruginosa, BAA2109; >85% reduction in growth at OD 590 nm; n = 3; read-out: MIC BAA 2109
# Protocol: as §2, §3, §4, §5, §6, §7
# [15] = test system: BAA 2110 (MDRPA clinical isolate); experiment: as above; type: cell-based, Pseudomonas aeruginosa; conditions: Pseudomonas aeruginosa, BAA2110; >85% reduction in growth at OD 590 nm; n = 3; read-out: MIC BAA 2110
# Protocol: as §2, §3, §4, §5, §6, §7
# [16] = parameters: method as in earlier work; conditions: value of the C2 functional group; cited from earlier work
# [17] = Solubility in the assay medium; type: physicochemical; conditions: assay medium of the ATP synthesis inhibition assay; read-out: Solubility in the assay medium (poor/insoluble above this concentration)
smiles,measurement,setting,value
CSc1nc2ccccc2cc1CNCc1ccc(CN(C)C)cc1 [Compound 1],PA ATP synthase IC50,PA ATP synthase [1],30 µg/mL
same,PA ETC IC50,[2],29 µg/mL
same,MIC PA 9027,PA 9027 [3],>256 µg/mL
same,MIC PΔ6,[4],64 to 128 µg/mL
same,MIC BAA 2108,[5],128 to 256 µg/mL
same,MIC BAA 2109,[6],256 µg/mL
same,MIC BAA 2110,[7],>256 µg/mL
CN(C)Cc1ccc(CNCc2cc3ccccc3nc2SCc2ccccc2)cc1 [Compound 2],IC50,PA ATP synthase [1],~4.68 µM
same,PA ETC IC50,[2],27 µg/mL
same,MIC PA 9027,PA 9027 [3],>128 µg/mL
same,MIC PΔ6,[4],16 µg/mL
same,MIC BAA 2108,[5],64 µg/mL
same,MIC BAA 2109,[6],>128 µg/mL
same,MIC BAA 2110,[7],>128 µg/mL
CSc1nc2ccccc2cc1CNCCCN(C)C [Compound 5],IC50,PA ATP synthase [8],149 µM
same,% PA ETC Inhibition at 32 µg/mL,[9],54%
same,% EC ETC Inhibition at 4 µg/mL,[10],9%
CN(C)CCCNCc1cc2ccccc2nc1SCc1ccccc1 [Compound 6],IC50,PA ATP synthase [8],16.4 µM
same,PA ETC IC50,[9],44 µg/mL
same,% EC ETC Inhibition at 4 µg/mL,[10],3%
same,MIC,PA 9027 [11],> 128 µg/mL
same,MIC,[12],16 µg/mL
same,MIC,[13],64 µg/mL
same,MIC,[14],64 µg/mL
same,MIC,[15],32 µg/mL
same,approximate pKa (NH+) of C2 side chain conjugate acid,[16],above 6
CSc1nc2ccccc2cc1CNCCCCN(C)C [Compound 7],IC50,PA ATP synthase [8],224 µM
same,% PA ETC Inhibition at 32 µg/mL,[9],72%
same,% EC ETC Inhibition at 4 µg/mL,[10],6%
CN(C)CCCCNCc1cc2ccccc2nc1SCc1ccccc1 [Compound 8],IC50,PA ATP synthase [8],2.63 µM
same,PA ETC IC50,[9],26 [26] μg/mL
same,% EC ETC Inhibition at 4 µg/mL,[10],0%
same,MIC,PA 9027 [11],> 128 µg/mL
same,MIC,[12],16 µg/mL
same,MIC,[13],64 µg/mL
same,MIC,[14],64 µg/mL
same,MIC,[15],32 µg/mL
same,approximate pKa (NH+) of C2 side chain conjugate acid,[16],> 6
CSc1nc2ccccc2cc1CNCCCCCN(C)C [Compound 9],IC50,PA ATP synthase [8],59.8 µM
same,% PA ETC Inhibition at 32 µg/mL,[9],74%
same,% EC ETC Inhibition at 4 µg/mL,[10],22%
CN(C)CCCCCNCc1cc2ccccc2nc1SCc1ccccc1 [Compound 10],IC50,PA ATP synthase [8],~5.08 µM and 5.08 µM
same,PA ETC IC50,[9],57 µg/mL
same,% EC ETC Inhibition at 4 µg/mL,[10],14%
same,MIC,PA 9027 [11],> 128 µg/mL
same,MIC,[12],64 µg/mL
same,MIC,[13],64 µg/mL
same,MIC,[14],128 µg/mL
same,MIC,[15],64 µg/mL
same,approximate pKa (NH+) of C2 side chain conjugate acid,[16],above 6
CSc1nc2ccccc2cc1CNCc1ccc(N(C)C)cc1 [Compound 11],IC50,PA ATP synthase [8],14.8 µM
same,% PA ETC Inhibition at 4 µg/mL,[9]; 4 µg/mL,20%
same,% EC ETC Inhibition at 4 µg/mL,[10],4%
same,approximate pKa (NH+) of C2 side chain conjugate acid,[16],∼5
CN(C)c1ccc(CNCc2cc3ccccc3nc2SCc2ccccc2)cc1 [Compound 12],PA ATP synthase inhibition (in words),"PA ATP synthase [8]; <4 μg/mL, IC50 could not be determined",potent PA ATP synthase inhibition at low concentrations
same,PA ETC inhibition (in words),[9],displayed some PA and EC ETC
same,EC ETC inhibition (in words),[10],displayed some PA and EC ETC
same,solubility,[17],≤ 16 µg/mL
CCN1CCC(CCNCc2cc3ccccc3nc2SC)CC1 [Compound 13],IC50,PA ATP synthase [8],114 µM
same,% PA ETC Inhibition at 32 µg/mL,[9],74%
same,% EC ETC Inhibition at 4 µg/mL,[10],20%
